Biological target: T1, Na+-dependent bile acid transportation system (intestinal bile acid transportation system in the terminal small intestine) (Oryctolagus cuniculus, UniProt Q28727)
T1 construct: from tissue; host or cells: brush border membrane vesicles from the terminal 7/10 of the small intestine (ileum) of male New Zealand rabbits
T1 sequence (Q28727 1-347): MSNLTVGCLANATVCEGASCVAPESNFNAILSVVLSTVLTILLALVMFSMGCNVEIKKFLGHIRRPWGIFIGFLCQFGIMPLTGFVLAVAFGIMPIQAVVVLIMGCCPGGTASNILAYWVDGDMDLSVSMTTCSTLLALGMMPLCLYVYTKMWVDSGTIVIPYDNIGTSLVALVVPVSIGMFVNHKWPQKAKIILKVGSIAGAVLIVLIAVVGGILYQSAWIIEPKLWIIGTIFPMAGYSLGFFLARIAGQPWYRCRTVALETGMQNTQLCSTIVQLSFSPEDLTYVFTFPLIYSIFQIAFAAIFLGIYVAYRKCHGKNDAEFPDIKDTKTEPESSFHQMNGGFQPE
Assay: Inhibition of Na+-dependent [3H]-taurocholate uptake in brush border membrane vesicles of the ileum of rabbits
Assay type: biochemical
Settings: quotient of IC50Na of reference taurochenedeoxycholate (TCDC) and IC50Na of test substance; rabbit ileum brush border membrane vesicles; 50 μM taurocholate
Method: Biological testing of the compounds of the present invention was carried out by determining the inhibition of [^3 H]-taurocholate uptake in brush border membrane vesicles of the ileum of rabbits. The inhibition test was carried out as follows:
1. Preparation of brush border membrane vesicles from the ileum of rabbits
Preparation of brush border membrane vesicles from the intestinal cells of the small intestine was carried out by the so-called Mg^2+ precipitation method. Male New Zealand rabbits (2 to 2.5 kg of body weight) were sacrificed by intravenous injection of 0.5 ml of T61®, an aqueous solution of 2.5 mg of tetracaine HCl, 100 mg of embutramide and 25 mg of mebezonium iodide. The small intestine was removed and rinsed with ice-cold physiological saline solution. The terminal 7/10 of the small intestine (measured in the oral-rectal direction, i.e., the terminal ileum, which contains the active Na^+ -dependent bile acid transportation system) was used for preparation of the brush border membrane vesicles. The intestines were frozen at -80° C. in plastic bags under nitrogen.
For preparation of the membrane vesicles, the frozen intestines were thawed at 30° C. in a water-bath. The mucosa was scraped off and suspended in 60 ml of ice-cold 12 mM TRIS/HCl buffer (pH 7.1)/300 mM mannitol, 5 mM EGTA/10 mg/l of phenylmethylsulfonyl fluoride/1 mg/l of trypsin inhibitor from soybeans (32 U/mg)/0.5 mg/l of trypsin inhibitor from the bovine lung (193 U/mg)/5 mg/l of bacitracin. After dilution to 300 ml with ice-cold distilled water, the mixture was homogenized with an Ultraturrax (18-rod, IKA Werk Staufen, Germany) at 75% of the maximum for 3 minutes, while cooling with ice. After addition of 3 ml of 1 M MgCl2 solution (final concentration 10 mM), the mixture was left to stand at 0° C. for exactly 1 minute. By addition of Mg^2+, the cell membranes aggregated, and precipitated with the exception of the brush border membranes. After centrifugation at 3000× g (5000 rpm, SS-34 rotor) for 15 minutes, the precipitate was discarded and the supernatant, which contained the brush border membrane, was centrifuged at 48,000× g (20,000 rpm, SS-34 rotor) for 30 minutes. The supernatant was discarded and the precipitate was rehomogenized in 60 ml of 12 mM TRIS/HCl buffer (pH 7.1)/60 mM mannitol, 5 mM EGTA with a Potter Elvejhem homogenizer (Braun, Melsungen, 900 rpm, 10 strokes). After addition of 0.1 ml of 1 M MgCl2 solution and an incubation time of 15 minutes at 0° C., the mixture was centrifuged again at 3000× g for 15 minutes. The supernatant was then centrifuged again at 48,000× g (20,000 rpm, SS-34 rotor) for 30 minutes. The precipitate was taken up in 30 ml of 10 mM TRIS/HEPES buffer (pH 7.4)/300 mM mannitol and resuspended homogeneously by 20 strokes in a Potter Elvejhem homogenizer at 1000 rpm. After centrifugation at 48,000× g (20,000 rpm, SS-34 rotor) for 30 minutes, the precipitate was taken up in 0.5 to 2 ml of TRIS/HEPES buffer (pH 7.4)/280 mM mannitol (final concentration 20 mg/ml) and resuspended with the aid of a tuberculin syringe with a 27-gauge needle. The vesicles were either used directly for transportation studies after the preparation or stored at -196° C. in 4 mg portions in liquid nitrogen.
2. Inhibition of the Na^+ -dependent [^3 H]taurocholate uptake in brush border membrane vesicles of the ileum
The uptake of substrates in the brush border membrane vesicles described above was determined by means of the so-called membrane filtration technique. 10 μl of the vesicle suspension (100 μg of protein) were pipetted as drops onto the wall of a polystyrene incubation tube (11×70 mm), which contained the incubation medium with the corresponding ligands (90 μl). […]

COC(=O)CCC(C)C1CCC2C3C(O)CC4CC(NC(=O)CCC(=O)NC(Cc5ccccc5)C(=O)N5CCCC5C(=O)Nc5ccccc5C(Nc5ccccn5)C(c5ccccn5)C(O)c5ccccc5)CCC4(C)C3CC(O)C12C (centres unmarked) [Example 2d]
IC5ONa -TCDC (μmol)/ IC50Na -compound (μmol): 0.56

CC(CCC(=O)O)C1CCC2C3C(O)CC4CC(NC(=O)CCC(=O)NC(Cc5ccccc5)C(=O)N5CCCC5C(=O)Nc5ccccc5C(Nc5ccccn5)C(c5ccccn5)C(O)c5ccccc5)CCC4(C)C3CC(O)C12C (centres unmarked) [Example 2e]
IC5ONa -TCDC (μmol)/ IC50Na -compound (μmol): 1.96

CC(CCC(=O)O)C1CCC2C3C(O)CC4CC(NC(=O)CCC(=O)NC(CCCCNC(=O)OC(C)(C)C)C(=O)Nc5ccccc5C(Nc5ccccn5)C(c5ccccn5)C(O)c5ccccc5)CCC4(C)C3CC(O)C12C (centres unmarked) [Example 12]
IC5ONa -TCDC (μmol)/ IC50Na -compound (μmol): 2.58

COC(=O)CCC(C)C1CCC2C3C(O)CC4CC(NC(=O)CCC(=O)NCCCCC(N)C(=O)Nc5ccccc5C(Nc5ccccn5)C(c5ccccn5)C(O)c5ccccc5)CCC4(C)C3CC(O)C12C (centres unmarked) [Example 9]
IC5ONa -TCDC (μmol)/ IC50Na -compound (μmol): 2.02

C[C@H](CCC(=O)Nc1ccccc1[C@@H](Nc1ccccn1)[C@H](c1ccccn1)[C@H](O)c1ccccc1)[C@H]1CC[C@H]2[C@@H]3[C@H](O)C[C@@H]4C[C@H](O)CC[C@]4(C)[C@H]3C[C@H](O)[C@]12C [Example 4]
IC5ONa -TCDC (μmol)/ IC50Na -compound (μmol): 0.50

CC(CCC(=O)O)C1CCC2C3C(O)CC4CC(NC(=O)CCC(=O)NC(CCCCNC(=O)OC(C)(C)C)C(=O)Nc5ccccc5C(Nc5ccccn5)C(c5ccccn5)C(O)c5ccccc5)CCC4(C)C3CC(O)C12C (centres unmarked) [Example 1j]
IC5ONa -TCDC (μmol)/ IC50Na -compound (μmol): 1.51

CC(CCC(=O)O)C1CC[C@H]2[C@@H]3[C@H](O)C[C@@H]4C[C@@H](NC(=O)CCC(=O)Nc5ccccc5C(Nc5ccccn5)C(c5ccccn5)C(O)c5ccccc5)CC[C@]4(C)[C@H]3C[C@H](O)[C@]12C (some centres unmarked) [Example 8]
IC5ONa -TCDC (μmol)/ IC50Na -compound (μmol): 0.91

CC(CCC(=O)NCC(=O)O)C1CCC2C3C(O)CC4CC(NC(=O)CCC(=O)NC(CCCCNC(=O)OC(C)(C)C)C(=O)Nc5ccccc5C(Nc5ccccn5)C(c5ccccn5)C(O)c5ccccc5)CCC4(C)C3CC(O)C12C (centres unmarked) [Example 14]
IC5ONa -TCDC (μmol)/ IC50Na -compound (μmol): 1.52

C[C@H](CCC(=O)O)[C@H]1CC[C@H]2[C@@H]3[C@H](O)C[C@@H]4C[C@@H](NC(=O)CCC(=O)Nc5ccc(C(Nc6ccccn6)C(c6ccccn6)C(O)c6ccccc6)cc5)CC[C@]4(C)[C@H]3C[C@H](O)[C@]12C (some centres unmarked) [Example 7]
IC5ONa -TCDC (μmol)/ IC50Na -compound (μmol): 0.15

CC(CCC(=O)NCCS(=O)(=O)O)C1CCC2C3C(O)CC4CC(NC(=O)CCC(=O)NC(CCCCNC(=O)OC(C)(C)C)C(=O)Nc5ccccc5C(Nc5ccccn5)C(c5ccccn5)C(O)c5ccccc5)CCC4(C)C3CC(O)C12C (centres unmarked) [Example 1k]
IC5ONa -TCDC (μmol)/ IC50Na -compound (μmol): 1.59

CC(CCC(=O)O)C1CCC2C3C(O)CC4CC(NC(=O)CCC(=O)NCCCCC(N)C(=O)Nc5ccccc5C(Nc5ccccn5)C(c5ccccn5)C(O)c5ccccc5)CCC4(C)C3CC(O)C12C (centres unmarked) [Example 10]
IC5ONa -TCDC (μmol)/ IC50Na -compound (μmol): 1.63
